From patent publication US20250130239A1, “PROTEIN DEGRADER” (University of Dundee, priority 2021, published 2025) come the findings set out here.

One data set can be described thus: Plasma stability. The format is in vitro ADME. As to conditions: mouse plasma, 37° C., over 1 h. As to the method:
Plasma Stability. Plasma stability studies were outsourced and undertaken by Shanghai ChemPartner Co., Ltd. Buffer preparation: A solution of 0.05 M sodium phosphate and 0.07 M NaCl buffer at pH 7.4 was made by dissolving 14.505 g/L Na2HPO4·12H2O, 1.483 g/L NaH2PO4·2H2O and 4.095 g/L NaCl in deionized water and the pH adjusted with phosphoric acid. Plasma preparation: Frozen mouse plasma was thawed by placing at 37° C. quickly. The thawed plasma was centrifuged at 3,000 rpm for 8 min to remove clots and the supernatant was pooled to be used as the plasma in the experiment. The plasma (pH 7.4-8.0) was stored on ice until used. […] Plasma and spiking solutions were pre-warmed at 37° C. for 5 min, then 10 μL of pre-warmed spiking solution B were added into the wells designated for all the time points (5, 15, 30, 45, 60 min). For 0-min, 400 μL of acetonitrile containing internal standards (Imipramine, Glipizide) were added to the wells of 0-min plate and then 90 μL of plasma was added. For the time points (0, 5, 15, 30, 45, 60 min), 90 μL of pre-warmed plasma was added to start timing. At 5, 15, 30, 45, 60 min, 400 μL of acetonitrile containing internal standard (Imipramine, Glipizide) were added to the wells of corresponding plates, respectively, to stop the reaction. […] Data was analysed with Microsoft Excel.

The next data set concerns HEK293 cells. The experiment in a line: CellTiter-Glo cell viability assay, HEK293. The class given is cell-based, human. As to conditions: up to 10 μM; 48 h.
The next data set addresses T1, BromoTag-Brd2 (Homo sapiens, UniProt O60885+P40337, L387A).
T1 construct: comprising residues 368-440 of human Brd4; Brd2 (endogenous protein, fusion partner in the same polypeptide); eGFP-P2A (upstream marker in the knock-in cassette) (N, cleaved yes); expressed in transfected cells; host or cells: HEK293, heterozygous CRISPR knock-in at the endogenous BRD2 locus
Description: Competition assay (inhibitor pre-treatment, then AGB1). As to conditions: then 200 nM 46 for 3 h. The format is cell-based. The method, then:
Competition Assay. Heterozygous BromoTag-Brd2 HEK293 cells were plated in six-well plates at a density of 5×10^5 cells per well in 2 mL DMEM media. […] After 1 h, 200 nM of AGB1 was added to the previously compound treated cells. After a following 3 h the cells were harvested for subsequent processing via western blot. Each treatment was performed in tandem to produce two technical repeats per condition. The 6 well plates were incubated for 4 h at 37° C. and 5% CO2 throughout the experiment.
Western Blotting. All cells were harvested on ice with RIPA lysis, and extraction buffer (ThermoFisher Scientific, 89901) supplemented with protease inhibitor cocktail (Merck, 11697498001) and Benzonase® Nuclease (Sigma, E1014) before being store at −20° C. prior to use. Total protein quantity was determined using the BCA protein assay (#23225, Pierce, Rockford, Illinois). Protein concentration was determined using the BCA assay (ThermoFisher Scientific, 23225). Samples were then prepared and loaded onto NuPAGE™ 4-12% Bis-Tris Midi gels (ThermoFisher Scientific, WG1403A), followed by the transfer of the proteins onto nitrocellulose membranes (EMD Millipore). The membranes were blocked for 1 h prior to incubation with the primary antibodies using 5% Milk TBST. Membranes were probed for Brd2 (Abcam, Ab139690, 1:1000), Brd3 (Abcam, Ab50818, 1:4000), Brd4 (Abcam, Ab128874, 1:1000) or our polyclonal Brd4^BD2 L387A antibody. Following overnight incubation with the primary antibodies at 4° C., the membranes were incubated with secondary antibodies (Anti-rabbit, Abcam AB216773, 1:5000 or anti-mouse, Abcam AB216774, 1:5000) and hFAB™ Rhodamine Anti-Tubulin Antibody (Biorad, 12004165, 1:10000) for one h and then imaged with a Bio-Rad imager (LI-COR Biosciences). All western blots were analysed for band intensities using Image Lab from Bio-Rad (LI-COR, Biosciences). The data extracted from these blots were then plotted and analysed using Prism (v. 8.2.0, GraphPad).

In data set [1] the target is T2, MCM4 (P33991), BromoTag N-term (Homo sapiens, UniProt O60885+P40337, L387A).
T2 construct: comprising residues 368-440 of human Brd4; MCM4 (endogenous protein, fusion partner in the same polypeptide); expressed in transfected cells
Description: Degradation of BromoTag'ed MCM4 by AGB1. The class given is cell-based. The source says: (§1) Degradation of a variety of target proteins. […] We performed CRISPR knock-in of the BromoTag, as described, into the endogenous loci of five additional proteins. […] The target proteins of Table 6 are all different, are all known to have different cellular roles and function, intracellular expression, and distinctive turnover rates within cells.

The target of data set [2] is T3, BRD4 (O60885), BromoTag N-term (Homo sapiens, UniProt O60885+P40337, L387A).
T3 construct: comprising residues 368-440 of human Brd4; expressed in transfected cells
The experiment in a line: Degradation of BromoTag'ed BRD4 by AGB1. The format is cell-based.
Description: as §1

The structures appear in SMILES notation.

T1 sequence (P40337 whole entry, other chains not shown, the tested form may be a part): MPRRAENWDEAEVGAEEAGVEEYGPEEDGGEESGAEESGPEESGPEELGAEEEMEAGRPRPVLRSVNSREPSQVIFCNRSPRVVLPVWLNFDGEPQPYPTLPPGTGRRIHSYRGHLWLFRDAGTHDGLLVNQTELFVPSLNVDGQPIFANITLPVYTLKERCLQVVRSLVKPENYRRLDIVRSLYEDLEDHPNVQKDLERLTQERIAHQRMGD
T3 sequence (P40337 whole entry, other chains not shown, the tested form may be a part): as above
T2 sequence (P40337 whole entry, other chains not shown, the tested form may be a part): as above

With `CC[C@@H](C(=O)OCCOCCOCCOCC(=O)N[C@H](C(=O)N1C[C@H](O)C[C@H]1C(=O)NCc1ccc(-c2scnc2C)cc1)C(C)(C)C)[C@@H]1N=C(c2ccc(Cl)cc2)c2c(sc(C)c2C)-n2c(C)nnc21` (single isomer, unassigned) [AGB1 (46)], in the data set “Plasma stability”, the “plasma stability, levels remaining” value is given as “no significant changes”. In the data set with HEK293 cells, the cytotoxicity entry was “lack of cytotoxicity”. On BromoTag-Brd2 (3 μM MLN4924 1 h), the “on-target degradation activity after pre-treatment with MLN4924” value is listed as “completely abrogated”. Also, the “on-target degradation activity after pre-treatment with ET-JQ1-OMe” value at BromoTag-Brd2 (10 μM ET-JQ1-OMe 1 h) is given as “A similar outcome”. Further, the “on-target degradation activity after pre-treatment with VH298” value on BromoTag-Brd2 (10 μM VH298 1 h) is “completely abrogated”. Moreover, the “on-target degradation activity after pre-treatment with MG132” value on BromoTag-Brd2 (50 μM MG132 1 h) is “blocked”. Further, the Dmax (as a rule, the largest share of the target that was removed) in data set [1] is more than 99%; in data set [2], more than 95%. Besides, the pDC50 worked out at 8.1 in data set [1] (BromoTag'ed MCM4, N-term tag) and 7.9 in data set [2] (BromoTag'ed BRD4, N-term tag).
